Earlier results on two molecules are cited in US11441198B2 (priority 2016, dated 2022).

Data set [1] has as its system influenza viruses.
Data set [2] relates to influenza virus. As to conditions: double-blind randomized placebo-controlled trial.

`COc1c(C)c2c(c(O)c1C/C=C(\C)CCC(=O)O)C(=O)OC2` [mycophenolic acid]: the “antiviral activity against influenza viruses” value in data set [1] is given as “has antiviral activity”. Take `CC(=O)Oc1ccccc1C(=O)Nc1ncc([N+](=O)[O-])s1` [Nitazoxanide]: the symptoms result in data set [2] is recorded as “associated with improvement in symptoms”.
